Results as given in patent US9737075B2, “Synergistic benzoxaborole-containing anti-fungicidal composition” (The Penn State Research Foundation, priority 2015, dated 2017).
Converted amounts (≈) assume the structure as drawn. Read-outs that look alike come from different tables or passages of the source.

Key:
Assay type in all cases: cell-based
Rhizoctonia solani = test: Broth microdilution MIC of individual antifungals; conditions: individual antifungal, 25% PDB, about 25° C., 72 hours, range over N independent triplicate studies, read-out: Independent MIC
Botrytis cinerea 10-1728 = test: Broth microdilution MIC of individual antifungals; conditions: 101728; Botrytis cinerea 10-1728; individual antifungal, 25% PDB, about 25° C., 72 hours; range over N independent triplicate studies; read-out: Independent MIC
Sclerotinia homoeocarpa = test: Broth microdilution MIC of individual antifungals; conditions: Clarireedia homoeocarpa; Sclerotinia homoeocarpa; individual antifungal, 25% PDB, about 25° C., 72 hours; range over N independent triplicate studies; read-out: Independent MIC
Candida albicans = test: Broth microdilution MIC of individual antifungals; conditions: read-out: Independent MIC
Aspergillus niger = test: Broth microdilution MIC of individual antifungals; conditions: read-out: Independent MIC
[1] = tested on: Colletotrichum orbiculare; test: Broth microdilution MIC of individual antifungals; conditions: read-out: Independent MIC
Fusarium graminearum = test: microbe, parasite or virus in culture; conditions: Fusarium graminearum, 72 h, read-out: Independent MIC
Magnaporthe grisea = test: microbe, parasite or virus in culture; conditions: Pyricularia oryzae, 72 h, read-out: Independent MIC
Mucor sp. = test: Broth microdilution MIC of individual antifungals; conditions: individual antifungal, 25% PDB, about 25° C., 72 hours, range over N independent triplicate studies
Alternaria solani = test: Broth microdilution MIC of individual antifungals; conditions: individual antifungal, 25% PDB, about 25° C., 72 hours, range over N independent triplicate studies, read-out: Independent MIC
Phytophthora pini = test: Broth microdilution MIC of individual antifungals; conditions: individual antifungal, 25% PDB, about 25° C., 72 hours, range over N independent triplicate studies
Aureobasidium pullulans = test: Broth microdilution MIC of individual antifungals; conditions: individual antifungal, 25% PDB, about 25° C., 72 hours, range over N independent triplicate studies, read-out: Independent MIC
Rhizopus sp. = test: Broth microdilution MIC of individual antifungals; conditions: Rhizopus, 72 h, Rhizopus sp.; individual antifungal, 25% PDB, about 25° C., 72 hours; range over N independent triplicate studies; read-out: Independent MIC
Aspergillus flavus = test: Broth microdilution MIC of individual antifungals; conditions: individual antifungal, 25% PDB, about 25° C., 72 hours, range over N independent triplicate studies, read-out: Independent MIC
Stachybotrys chartarum = test: Broth microdilution MIC of individual antifungals; conditions: individual antifungal, 25% PDB, about 25° C., 72 hours, range over N independent triplicate studies, read-out: Independent MIC
Fusarium verticillioides = test: Broth microdilution MIC of individual antifungals; conditions: individual antifungal, 25% PDB, about 25° C., 72 hours, range over N independent triplicate studies, read-out: Independent MIC
[2] = tested on: Fusarium solani f. sp. pisi (MP VI); test: Broth microdilution MIC of individual antifungals; conditions: Fusarium solani f. sp. pisi (MP VI); individual antifungal, 25% PDB, about 25° C., 72 hours; range over N independent triplicate studies; read-out: Independent MIC
Botrytis cinerea B17 = test: Broth microdilution MIC of individual antifungals; conditions: Botrytis cinerea B17; individual antifungal, 25% PDB, about 25° C., 72 hours; range over N independent triplicate studies; read-out: Independent MIC
Fusarium oxysporum ST33 = test: Broth microdilution MIC of individual antifungals; conditions: individual antifungal, 25% PDB, about 25° C., 72 hours, range over N independent triplicate studies
Aspergillus fumigatus = test: Broth microdilution MIC of individual antifungals; conditions: individual antifungal, 25% PDB, about 25° C., 72 hours, range over N independent triplicate studies, read-out: Independent MIC
Pythium aphanodermatum = test: Broth microdilution MIC of individual antifungals; conditions: individual antifungal, 25% PDB, about 25° C., 72 hours, range over N independent triplicate studies
[3] = tested on: Fusarium oxysporum f. sp. lycopersici; test: Broth microdilution MIC of individual antifungals; conditions: individual antifungal, 25% PDB, about 25° C., 72 hours, range over N independent triplicate studies
[4] = tested on: Mycosphaerella zeae-maydis; test: Broth microdilution MIC of individual antifungals; conditions: Didymella maydis, individual antifungal, 25% PDB, about 25° C., 72 hours, range over N independent triplicate studies
[5] = individual antifungal, 25% PDB, about 25° C., 72 hours, range over N independent triplicate studies

| Structure (SMILES) | MIC (Rhizoctonia solani) [µg/mL] | MIC (Botrytis cinerea 10-1728) [µg/mL] | MIC (Sclerotinia homoeocarpa) [µg/mL] | MIC (Fusarium graminearum) [µg/mL] | MIC (Magnaporthe grisea) [µg/mL] | MIC (Mucor sp.) [µg/mL] | MIC (Alternaria solani) [µg/mL] | MIC (Rhizopus sp.) [µg/mL] | MIC (Aspergillus flavus) [µg/mL] | MIC (Fusarium verticillioides) [µg/mL] | MIC (Candida albicans; [5]) [µg/mL] | MIC (Aspergillus niger; [5]) [µg/mL] | MIC (Aspergillus fumigatus) [µg/mL] | MIC [4] [µg/mL] | further results |
| --- | --- | --- | --- | --- | --- | --- | --- | --- | --- | --- | --- | --- | --- | --- | --- |
| CC(C)OP(=O)(OC(C)C)SCc1ccccc1 [Iprobenfos, iprobenfos] | 200 to 400 | 100 to 200 | 12.5 to 25 | 200 to 400 (≈ 694 to 1390 µM) | 25 (≈ 86.7 µM) | 100 to 200 |  |  |  |  |  |  |  |  | MIC (Candida albicans; 72 h): 200 to 400 µg/mL; MIC (Aspergillus niger; 72 h): 200 to 300 µg/mL; MIC ([1]; 72 h): 12.5 to 25 µg/mL |
| Cc1cc(C)nc(Nc2ccccc2)n1 [Pyrimethanil, pyrimethanil] |  | 50 to 100 | 50 to 100 | 200 (≈ 1000 µM) | 100 to 200 (≈ 502 to 1000 µM) | 200 | 100 to 200 | 200 to 400 | 25 | 200 | 200 | 100 to 200 | 0.78 to 1 | 6.25 to 12.5 | MIC (Phytophthora pini): 100 µg/mL; MIC (Aureobasidium pullulans): 25 to 50 µg/mL; MIC (Stachybotrys chartarum): 50 to 90 µg/mL; MIC [2]: 200 to 400 µg/mL; MIC (Botrytis cinerea B17): 50 to 100 µg/mL; MIC (Fusarium oxysporum ST33): 200 µg/mL; MIC (Pythium aphanodermatum): 100 to 200 µg/mL; MIC [3]: 200 µg/mL |
| CC(C)(C)C(O)(CCc1ccc(Cl)cc1)Cn1cncn1 (stereo not shown) [Tebuconazole, tebuconazole] | 3.12 to 6.25 | 1 to 1.56 | 0.39 to 0.78 |  |  | 12.5 to 15 | 25 to 50 | 0.78 | 3 to 3.12 | 1.56 to 3 | 100 to 200 | 3.12 | 0.78 to 1.56 | 50 to 100 | MIC [1, 5]: 1.56 to 3.13 µg/mL |
